The subject of this assay is breast cancer cell line MX-1. As to the kind of experiment: MX-1 cell line proliferation assay, Method A. It is filed as cell-based. Conditions: Homo sapiens, MX1; MX-1 cells, 96-well, 72 hours, Cell Titer Glo; read-out: Cellular proliferation: EC50 Method A. On the procedure: The impact of compounds of the Examples on cancer cell proliferation was determined using the breast cancer cell line MX-1 (ATCC) in a 3-day proliferation assay and the data are reported in Table 1.
MX-1 cells were maintained in RPMI 1640 medium (Sigma) supplemented with 10% FBS at 37° C. and an atmosphere of 5% CO2. For compound testing, MX-1 cells were plated in 96-well black bottom plates at a density of 5000 cells/well in 90 μL of culture media and incubated at 370 overnight to allow cell adhesion and spreading. Compound dilution series were prepared in DMSO via a 3-fold serial dilution from 3 mM to 0.1 μM. The DMSO dilution series were then diluted 1:100 in phosphate buffered saline, and 10 μL of the resulted solution were added to the appropriate wells of the MX-1 cell plate. The final compound concentrations in the wells were 3, 1, 0.3, 0.1, 0.03, 0.01, 0.003, 0.001, 0.0003 and 0.0001 μM.
Luminescence readings from the Cell Titer Glo assay were normalized to the DMSO treated cells and analyzed using the GraphPad Prism software with sigmoidal curve fitting to obtain ECs50s. The minimum significant ratio (MSR) was determined to evaluate assay reproducibility (Eastwood et al., (2006) J Biomol Screen, 11: 253-261).
On the technique in general: In ATP-based viability assays light output follows the ATP content of the culture.

`CC(=O)N1CCN(C(=O)c2cccc(Oc3ccc(S(C)(=O)=O)cc3-c3cn(C)c(=O)c4[nH]ccc34)c2)CC1` [Example 30, 4-[2-{3-[(4-acetylpiperazin-1-yl)carbonyl]phenoxy}-5-(methylsulfonyl)phenyl]-6-methyl-1,6-dihydro-7H-pyrrolo[2,3-c]pyridin-7-one]: the EC50 was above 1 µM.
Turning to `Cn1cc(-c2cc(S(C)(=O)=O)ccc2Oc2cccc(C(=O)N3CCC(C(F)(F)F)CC3)c2)c2cc[nH]c2c1=O` [Example 31, 6-methyl-4-[5-(methylsulfonyl)-2-(3-{[4-(trifluoromethyl)piperidin-1-yl]carbonyl}phenoxy)phenyl]-1,6-dihydro-7H-pyrrolo[2,3-c]pyridin-7-one], the EC50 was determined as 0.443 µM.
Turning to `CN(C)CCNC(=O)c1cccc(Oc2ccc(S(C)(=O)=O)cc2-c2cn(C)c(=O)c3[nH]ccc23)c1` [Example 33, N-[2-(dimethylamino)ethyl]-3-[2-(6-methyl-7-oxo-6,7-dihydro-1H-pyrrolo[2,3-c]pyridin-4-yl)-4-(methylsulfonyl)phenoxy]benzamide], the EC50 is above 1 µM.
With `Cn1cc(-c2cc(S(C)(=O)=O)ccc2Oc2cccc(C(=O)NC[C@H]3CCCO3)c2)c2cc[nH]c2c1=O` [Example 34, 3-[2-(6-methyl-7-oxo-6,7-dihydro-1H-pyrrolo[2,3-c]pyridin-4-yl)-4-(methylsulfonyl)phenoxy]-N-[(2R)-tetrahydrofuran-2-ylmethyl]benzamide], the EC50 was found to be 0.155 µM.
The same measure for `Cn1cc(-c2cc(S(C)(=O)=O)ccc2Oc2cccc(C(=O)NCCN3CCCC3)c2)c2cc[nH]c2c1=O` [Example 35, 3-[2-(6-methyl-7-oxo-6,7-dihydro-1H-pyrrolo[2,3-c]pyridin-4-yl)-4-(methylsulfonyl)phenoxy]-N-[2-(pyrrolidin-1-yl)ethyl]benzamide]: 0.406 µM; for `Cn1cc(-c2cc(S(C)(=O)=O)ccc2Oc2cccc(C(=O)NCc3cc(F)cc(F)c3)c2)c2cc[nH]c2c1=O` [Example 36, N-(3,5-difluorobenzyl)-3-[2-(6-methyl-7-oxo-6,7-dihydro-1H-pyrrolo[2,3-c]pyridin-4-yl)-4-(methylsulfonyl)phenoxy]benzamide]: 0.255 µM.
Regarding `Cn1cc(-c2cc(S(C)(=O)=O)ccc2Oc2cccc(NS(=O)(=O)Cc3ccccc3)c2)c2cc[nH]c2c1=O` [Example 38, N-{3-[2-(6-methyl-7-oxo-6,7-dihydro-1H-pyrrolo[2,3-c]pyridin-4-yl)-4-(methylsulfonyl)phenoxy]phenyl}-1-phenylmethanesulfonamide], the EC50 was 0.103 µM.
In the case of `COc1ccc(S(=O)(=O)Nc2cccc(Oc3ccc(S(C)(=O)=O)cc3-c3cn(C)c(=O)c4[nH]ccc34)c2)cc1` [Example 39, 4-methoxy-N-{3-[2-(6-methyl-7-oxo-6,7-dihydro-1H-pyrrolo[2,3-c]pyridin-4-yl)-4-(methylsulfonyl)phenoxy]phenyl}benzenesulfonamide], the EC50 is 0.0974 µM.
Regarding `Cn1cc(-c2cc(S(C)(=O)=O)ccc2Oc2cccc(NS(=O)(=O)c3cccc(F)c3)c2)c2cc[nH]c2c1=O` [Example 40, 3-fluoro-N-{3-[2-(6-methyl-7-oxo-6,7-dihydro-1H-pyrrolo[2,3-c]pyridin-4-yl)-4-(methylsulfonyl)phenoxy]phenyl}benzenesulfonamide], the EC50 was found to be 0.143 µM.
On to `COc1cccc(S(=O)(=O)Nc2cccc(Oc3ccc(S(C)(=O)=O)cc3-c3cn(C)c(=O)c4[nH]ccc34)c2)c1` [Example 42, 3-methoxy-N-{3-[2-(6-methyl-7-oxo-6,7-dihydro-1H-pyrrolo[2,3-c]pyridin-4-yl)-4-(methylsulfonyl)phenoxy]phenyl}benzenesulfonamide], for which the EC50 amounted to 0.157 µM.
Take `Cn1cc(-c2cc(S(C)(=O)=O)ccc2Oc2cccc(NS(=O)(=O)c3ccc([N+](=O)[O-])cc3)c2)c2cc[nH]c2c1=O` [Example 43, N-{3-[2-(6-methyl-7-oxo-6,7-dihydro-1H-pyrrolo[2,3-c]pyridin-4-yl)-4-(methylsulfonyl)phenoxy]phenyl}-4-nitrobenzenesulfonamide]: the EC50 was 0.451 µM.
The same measure for `CC(=O)c1ccc(S(=O)(=O)Nc2cccc(Oc3ccc(S(C)(=O)=O)cc3-c3cn(C)c(=O)c4[nH]ccc34)c2)cc1` [Example 44, 4-acetyl-N-{3-[2-(6-methyl-7-oxo-6,7-dihydro-1H-pyrrolo[2,3-c]pyridin-4-yl)-4-(methylsulfonyl)phenoxy]phenyl}benzenesulfonamide]: 0.391 µM; for `CC(C)c1ccc(S(=O)(=O)Nc2cccc(Oc3ccc(S(C)(=O)=O)cc3-c3cn(C)c(=O)c4[nH]ccc34)c2)cc1` [Example 46, N-{3-[2-(6-methyl-7-oxo-6,7-dihydro-1H-pyrrolo[2,3-c]pyridin-4-yl)-4-(methylsulfonyl)phenoxy]phenyl}-4-(propan-2-yl)benzenesulfonamide]: 0.0431 µM.
The same measure for `Cn1cc(-c2cc(S(C)(=O)=O)ccc2Oc2cccc(NS(=O)(=O)c3cccc(OC(F)F)c3)c2)c2cc[nH]c2c1=O` [Example 48, 3-(difluoromethoxy)-N-{3-[2-(6-methyl-7-oxo-6,7-dihydro-1H-pyrrolo[2,3-c]pyridin-4-yl)-4-(methylsulfonyl)phenoxy]phenyl}benzenesulfonamide]: 0.172 µM.
The same measure for `Cn1cc(-c2cc(S(C)(=O)=O)ccc2Oc2cccc(NS(=O)(=O)C3CC3)c2)c2cc[nH]c2c1=O` [Example 49, N-{3-[2-(6-methyl-7-oxo-6,7-dihydro-1H-pyrrolo[2,3-c]pyridin-4-yl)-4-(methylsulfonyl)phenoxy]phenyl}cyclopropanesulfonamide]: 0.0738 µM.
As to `Cc1cccc(S(=O)(=O)Nc2cccc(Oc3ccc(S(C)(=O)=O)cc3-c3cn(C)c(=O)c4[nH]ccc34)c2)c1` [Example 50, 3-methyl-N-{3-[2-(6-methyl-7-oxo-6,7-dihydro-1H-pyrrolo[2,3-c]pyridin-4-yl)-4-(methylsulfonyl)phenoxy]phenyl}benzenesulfonamide], the EC50 amounted to 0.0405 µM.
In the case of `Cn1cc(-c2cc(S(C)(=O)=O)ccc2Oc2cccc(NS(=O)(=O)c3cccc([N+](=O)[O-])c3)c2)c2cc[nH]c2c1=O` [Example 51, N-{3-[2-(6-methyl-7-oxo-6,7-dihydro-1H-pyrrolo[2,3-c]pyridin-4-yl)-4-(methylsulfonyl)phenoxy]phenyl}-3-nitrobenzenesulfonamide], the EC50 is above 1 µM.
On to `Cc1cc(F)ccc1S(=O)(=O)Nc1cccc(Oc2ccc(S(C)(=O)=O)cc2-c2cn(C)c(=O)c3[nH]ccc23)c1` [Example 52, 4-fluoro-2-methyl-N-{3-[2-(6-methyl-7-oxo-6,7-dihydro-1H-pyrrolo[2,3-c]pyridin-4-yl)-4-(methylsulfonyl)phenoxy]phenyl}benzenesulfonamide], for which the EC50 was 0.0386 µM.
Regarding `Cn1cc(-c2cc(S(C)(=O)=O)ccc2Oc2cccc(NS(=O)(=O)c3ccc(S(C)(=O)=O)cc3)c2)c2cc[nH]c2c1=O` [Example 54, N-{3-[2-(6-methyl-7-oxo-6,7-dihydro-1H-pyrrolo[2,3-c]pyridin-4-yl)-4-(methylsulfonyl)phenoxy]phenyl}-4-(methylsulfonyl)benzenesulfonamide], the EC50 is above 1 µM.
The same measure for `Cn1cc(-c2cc(S(C)(=O)=O)ccc2Oc2cccc(NS(=O)(=O)c3ccccc3C#N)c2)c2cc[nH]c2c1=O` [Example 55, 2-cyano-N-{3-[2-(6-methyl-7-oxo-6,7-dihydro-1H-pyrrolo[2,3-c]pyridin-4-yl)-4-(methylsulfonyl)phenoxy]phenyl}benzenesulfonamide]: 0.393 µM.

Values taken from patent US10131657B2, “Bromodomain inhibitors” (AbbVie Inc., priority 2013, dated 2018).
